Experimental data reported in PubChem BioAssay (NCI).
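In this assay, cells in 96-well plates receive the compound at five concentrations for 48 hours. Endpoints are linearly interpolated between the surrounding concentrations. At the TGI there is no net growth.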

Tests used:
Assay in all cases: NCI tumour cell line growth inhibition, 48 h
786-0 renal = system: 786-0 renal
A498 renal = system: A498 renal
A549 NSCLC = system: A549 NSCLC
ACHN renal = system: ACHN renal
BT-549 breast = system: BT-549 breast
CAKI-1 renal = system: CAKI-1 renal
CCRF-CEM leukemia = system: CCRF-CEM leukemia
COLO 205 colon = system: COLO 205 colon
DU-145 prostate = system: DU-145 prostate
EKVX NSCLC = system: EKVX NSCLC
HCT-116 colon = system: HCT-116 colon
HCT-15 colon = system: HCT-15 colon
HL-60(TB) leukemia = system: HL-60(TB) leukemia
HOP-62 NSCLC = system: HOP-62 NSCLC
HOP-92 NSCLC = system: HOP-92 NSCLC
HS 578T breast = system: HS 578T breast
HT29 colon = system: HT29 colon
IGROV1 ovarian = system: IGROV1 ovarian
K-562 leukemia = system: K-562 leukemia
KM12 colon = system: KM12 colon
LOX IMVI melanoma = system: LOX IMVI melanoma
M14 melanoma = system: M14 melanoma
MALME-3M melanoma = system: MALME-3M melanoma
MCF7 breast = system: MCF7 breast
MDA-MB-231 breast = system: MDA-MB-231 breast
MDA-MB-435 = system: MDA-MB-435
MDA-N = system: MDA-N
MOLT-4 leukemia = system: MOLT-4 leukemia
NCI-H226 lung = system: NCI-H226 lung
NCI-H23 lung = system: NCI-H23 lung
NCI-H460 lung = system: NCI-H460 lung
NCI-H522 lung = system: NCI-H522 lung
NCI/ADR-RES ovarian = system: NCI/ADR-RES ovarian
OVCAR-3 ovarian = system: OVCAR-3 ovarian
OVCAR-4 ovarian = system: OVCAR-4 ovarian
OVCAR-5 ovarian = system: OVCAR-5 ovarian
OVCAR-8 ovarian = system: OVCAR-8 ovarian
PC-3 prostate = system: PC-3 prostate
RPMI-8226 leukemia = system: RPMI-8226 leukemia
RXF 393 renal = system: RXF 393 renal
SF-268 CNS = system: SF-268 CNS
SF-295 CNS = system: SF-295 CNS
SF-539 CNS = system: SF-539 CNS
SK-MEL-2 melanoma = system: SK-MEL-2 melanoma
SK-MEL-28 melanoma = system: SK-MEL-28 melanoma
SK-MEL-5 melanoma = system: SK-MEL-5 melanoma
SK-OV-3 ovarian = system: SK-OV-3 ovarian
SN12C renal = system: SN12C renal
SNB-19 CNS = system: SNB-19 CNS
SNB-75 CNS = system: SNB-75 CNS
SR leukemia = system: SR leukemia
SW-620 colon = system: SW-620 colon
T-47D breast = system: T-47D breast
TK-10 renal = system: TK-10 renal
U251 CNS = system: U251 CNS
UACC-257 melanoma = system: UACC-257 melanoma
UACC-62 melanoma = system: UACC-62 melanoma
HCC-2998 colon = system: HCC-2998 colon
UO-31 renal = system: UO-31 renal
DMS 114 small cell lung = system: DMS 114 small cell lung
DMS 273 small cell lung = system: DMS 273 small cell lung
KM20L2 colon = system: KM20L2 colon
LXFL 529 NSCLC = system: LXFL 529 NSCLC
SNB-78 CNS = system: SNB-78 CNS

Measured: TGI

Cc1cc(N2CCN(C)CC2)n2nc(-c3ccc(Cl)cc3)nc2n1
not listed: HCC-2998 colon | UO-31 renal | DMS 114 small cell lung | DMS 273 small cell lung | KM20L2 colon | LXFL 529 NSCLC | SNB-78 CNS
> 100 µM: all other assays above

O=C(Nc1ccccc1)c1cc(S(=O)(=O)N2CCNNC2=O)c(S)cc1Cl
83.9 µM: T-47D breast
95.5 µM: HCT-116 colon
95 µM: MDA-MB-231 breast
74.4 µM: RXF 393 renal
not listed: HOP-62 NSCLC | HT29 colon | NCI-H23 lung | SK-OV-3 ovarian | DMS 114 small cell lung | DMS 273 small cell lung | KM20L2 colon | LXFL 529 NSCLC | SNB-78 CNS
> 100 µM: all other assays above

COC(=O)CSSCc1ccc([N+](=O)[O-])cc1
42.4 µM: HOP-62 NSCLC | SK-MEL-2 melanoma
36.7 µM: SK-MEL-28 melanoma
31.5 µM: UACC-62 melanoma
50.9 µM: SK-MEL-5 melanoma
88 µM: CCRF-CEM leukemia
32.7 µM: SF-539 CNS
60.8 µM: HT29 colon
59.4 µM: HS 578T breast
59.6 µM: HCT-116 colon
55.2 µM: SNB-75 CNS
65.3 µM: 786-0 renal
54.8 µM: RPMI-8226 leukemia
48 µM: HCT-15 colon
88.8 µM: A549 NSCLC
34.1 µM: SN12C renal
50.7 µM: DU-145 prostate
46.8 µM: MDA-MB-231 breast | SK-OV-3 ovarian
82.1 µM: OVCAR-8 ovarian
51.7 µM: T-47D breast
70.2 µM: SR leukemia
98.4 µM: UACC-257 melanoma
45.9 µM: SF-268 CNS
34.7 µM: MDA-N
36.8 µM: SW-620 colon
31.3 µM: MDA-MB-435
67.7 µM: MALME-3M melanoma
8.09 µM: CAKI-1 renal
41 µM: HCC-2998 colon
81 µM: PC-3 prostate
> 100 µM: HOP-92 NSCLC | K-562 leukemia | MOLT-4 leukemia | NCI-H23 lung | NCI-H460 lung
47.1 µM: NCI/ADR-RES ovarian
46.4 µM: M14 melanoma
41.7 µM: BT-549 breast
76.2 µM: HL-60(TB) leukemia
27.9 µM: UO-31 renal
36.2 µM: ACHN renal | RXF 393 renal
34.3 µM: MCF7 breast
17.1 µM: IGROV1 ovarian
46.5 µM: OVCAR-3 ovarian
37.7 µM: COLO 205 colon
69.2 µM: EKVX NSCLC
45.7 µM: A498 renal
38.9 µM: KM12 colon
55.7 µM: TK-10 renal
43 µM: SF-295 CNS
30.3 µM: LOX IMVI melanoma
30.8 µM: NCI-H522 lung | U251 CNS
77.2 µM: SNB-19 CNS
35.6 µM: OVCAR-5 ovarian

CC(=N\N)/C(C)=N/N=C(C)/C(C)=N/N=C(C)/C(C)=N/N
not listed: UACC-62 melanoma | DMS 114 small cell lung | DMS 273 small cell lung | KM20L2 colon | LXFL 529 NSCLC | SNB-78 CNS
> 100 µM: all other assays above

C[N+]1(CCN[N+]2(C)CCCCC2)CCc2ccccc2C1 (stereo unspecified)
not listed: HL-60(TB) leukemia | DMS 114 small cell lung | DMS 273 small cell lung | KM20L2 colon | LXFL 529 NSCLC | SNB-78 CNS
> 100 µM: all other assays above

CC(SC(=O)Nc1ccc(N=Nc2ccccc2)cc1)C(=O)O (stereo unspecified)
46.4 µM: SNB-75 CNS
48.9 µM: SF-268 CNS
not listed: BT-549 breast | DU-145 prostate | HOP-92 NSCLC | HS 578T breast | MALME-3M melanoma | MCF7 breast | MDA-MB-231 breast | MDA-MB-435 | MDA-N | NCI/ADR-RES ovarian | PC-3 prostate | SK-MEL-5 melanoma | SK-OV-3 ovarian | T-47D breast
> 100 µM: all other assays above

COc1ccc(/C=N/n2cnc3[nH]c(C)c(Cc4ccccc4)c3c2=N)cc1
79.3 µM: RXF 393 renal
not listed: K-562 leukemia | LOX IMVI melanoma | SF-539 CNS | DMS 114 small cell lung | DMS 273 small cell lung | KM20L2 colon | LXFL 529 NSCLC | SNB-78 CNS
> 100 µM: all other assays above
